Reference: patent US20100105772A1, “USE OF NOVEL LIPID MEDIATORS TO INHIBIT ANGIOGENESIS” (priority 2008, published 2010)

Columns and labels:
Type in all cases: in vivo, mice
macrophages = assay: Macrophage infiltration in suture-induced inflamed corneas (F4/80 staining of cross-sections); conditions: 72 h after suture placement
Protocol: ATLa or vehicle was subconjunctivally injected at 0 h and 48 h after suture placement. For each compound treatment, eyes were enucleated from a group of mice at 24 h, and another group at 72 h after suture placement (3 eyes per group). Cross-sections were stained with anti-neutrophil (NIMP-R14) or anti-macrophage (F4/80) Ab, and 12 sections were used to enumerate the respective leukocyte populations. Results represent the mean (±SEM) of 3 eyes per group (*P<0.05, **P<0.001 vs vehicle-treated group, t-test), and data are representative of two independent experiments. […]
BALB/c mice were randomized to receive ATLa, or vehicle (normal saline) by subconjunctival injection in a masked fashion after suture or hydron pellet placement. […] ATLa was synthesized as described previously.^20 The physical properties were monitored routinely via LC/MS/MS matching the reported biological and physical properties prior to analysis in present experiments.
Full thickness corneal tissue or 8 μm-frozen sections were fixed in acetone for 15 minutes at room temperature. […] Finally, the samples were covered with mounting medium (Vector Laboratories, Burlingame, Calif.) and analyzed by epifluorescence microscopy (Eclipse E800; Nikon, Tokyo, Japan). […]

TNF-α mRNA = assay: Real-time PCR of TNF-α mRNA in suture-induced inflamed corneas; conditions: vs vehicle
Protocol: FIG. 3. Lipoxin Reduces Cytokine mRNA Expressions in Inflamed Corneas. ATLa or vehicle was subconjunctivally injected at 0 h and 48 h after suture placement. For each compound treatment, corneas were harvested from a group of mice at 24 h, and another group at 72 h after suture placement, as well as from normal untreated control corneas (6 corneas per group). mRNA levels of inflammatory cytokines (including IL-1α, IL-1β, and TNF-α) were determined by real-time PCR. Data were normalized to GAPDH mRNA and values were expressed as the fold change over normal control corneas. Results represent the mean (±SEM) of three samples per group (each sample consisted of 2 pooled corneas), and data are representative of two independent experiments (*P<0.05, **P<0.001 vs vehicle-treated group, t-test). […]
(§1) BALB/c mice were randomized to receive ATLa, or vehicle (normal saline) by subconjunctival injection in a masked fashion after suture or hydron pellet placement. […] ATLa was synthesized as described previously.^20 The physical properties were monitored routinely via LC/MS/MS matching the reported biological and physical properties prior to analysis in present experiments. […]

VEGF-A mRNA = assay: Real-time PCR of VEGF-A mRNA in suture-induced inflamed corneas; conditions: 24 h and 72 h after suture placement; vs vehicle-treated group
Protocol: (§2) FIG. 4. The Impact of Lipoxin on the mRNA Expression of VEGFs and VEGFRs in Inflamed Corneas. ATLa or vehicle was subconjunctivally injected at 0 h and 48 h after suture placement. For each compound treatment, corneas were harvested from a group of mice at 24 h, and another group at 72 h after suture placement, as well as from normal untreated control corneas (6 corneas per group). (A) VEGF ligand species (VEGF-A, VEGF-C, VEGF-D) and (B) VEGFRs (VEGFR2 and VEGFR3) were tested by real-time PCR and normalized to GAPDH mRNA. Values are expressed as fold change over the normal control cornea. Results represent the mean (±SEM) of three samples per group (each sample consisted of 2 pooled corneas), and the data are representative of two independent experiments (*P<0.05, **P<0.001, ***P<0.0005, vs vehicle-treated group, t-test). […]
as §1

VEGFR-2 mRNA = assay: Real-time PCR of VEGFR-2 mRNA in suture-induced inflamed corneas; conditions: 24 h and 72 h after suture placement; vs vehicle-treated group
Protocol: as §2, §1

COC(=O)CCC[C@H](O)[C@H](O)/C=C/C=C/C=C\C=C\[C@H](O)COc1ccc(F)cc1 [ATLa, 15-epi-16-(para-fluoro)-phenoxy-lipoxin A4 methyl ester]
macrophages per section (macrophages; n=3, mean±SEM): 46±5 cells/section
reduction in macrophage infiltration (macrophages; vs vehicle control group): 25-40%
increase in TNF-α expression (mRNA) (TNF-α mRNA; 24 h after suture placement): significantly suppressed
increase in TNF-α expression (mRNA) (TNF-α mRNA; 72 h after suture placement): not at 72 h
VEGF-A mRNA expression (VEGF-A mRNA): lower
VEGFR-2 mRNA expression (VEGFR-2 mRNA): lower
